Reference: paper PMC12459184, “Design, synthesis, and bioevaluation of pyrazole-containing tubulin polymerisation inhibitors based on conformational constraint strategy” (Journal of Enzyme Inhibition and Medicinal Chemistry, 2025)
Where two headings read alike, the source gives them in different places.

Columns and labels:
[1] = test system: SGC-7901 cells; assay: MTT antiproliferative assay, SGC-7901; type: cell-based; conditions: Homo sapiens, read-out: IC50 (μM) ± SD SGC-7901
Method: (§1) The in vitro antiproliferative activities of all target compounds 4a−k, 5a−h, and 6a−h were assayed by MTT method using human gastric cancer cell line SGC-7901 and human breast cancer cell line MCF-7.
(§2) All cell lines tested in this study were purchased from the American Type Culture Collection (ATCC, Manassas, VA). SGC-7901 (human gastric adenocarcinoma), HCT-116 (human colon carcinoma), and A549 (human pulmonary carcinoma) cells were cultured in RPMI-1640 medium containing 10% foetal serum (FBS) and 1% penicillin-streptomycin solution (100×). MCF-7 (human breast carcinoma) cells were cultured in DMEM medium containing 10% foetal serum (FBS) and 1% penicillin-streptomycin solution (100×). PC-3 (human prostate carcinoma) cells were cultured in Ham’s F-12K medium containing 10% foetal serum (FBS) and 1% penicillin-streptomycin solution (100×). All cells were cultured at 37 °C in a humidified atmosphere containing 5% CO2.
(§3) Cells grown in logarithmic phase were harvested and seeded onto 96-well cell plates at a density of 4 ∼ 5 × 10^3 cells per well (various from cell type) and were cultured for 24 h. Different concentrations of compounds were added into the wells, and the cells were cultured for another 72 h. The medium was removed, then 20 μL of MTT (5 mg/mL in PBS) was added to each well and the cells were incubated for 4 h. 150 μL of DMSO was added to each well to dissolve the formazan, and the absorbance at 490 nm of each well was measured by a microplate reader. IC50 values were calculated by SPSS software.

[2] = test system: MCF-7 cells; assay: MTT antiproliferative assay, MCF-7; type: cell-based; conditions: Homo sapiens, read-out: IC50 (μM) ± SD MCF-7
Method: as §1, §2, §3

[3] = test system: HCT-116 cells; assay: MTT antiproliferative assay, HCT-116; type: cell-based; conditions: Homo sapiens, 72 h drug exposure, read-out: IC50 (μM) ± SD HCT-116
Method: as §2, §3

[4] = test system: human liver cells (L02); assay: MTT toxicity assay, normal cells L02; type: cell-based; conditions: for IC50: Homo sapiens, read-out: IC50 (μM) ± SD L02; for SI-L: SI-L = IC50 (L02)/IC50 (PC-3)
Method: The toxicity of compounds 4k and 5a was also tested by using human umbilical vein endothelial cells (HUVEC) and human liver cells (L02).
as §3

[5] = test system: tubulin; assay: In vitro tubulin polymerisation assay; type: biochemical
Method: To investigate the effect of compounds 4k and 5a on microtubule system, their tubulin polymerisation inhibition activities were evaluated using in vitro tubulin polymerisation assay.
The BK001 kit used in this test was purchased from Cytoskeleton Inc. (Denver, CO, USA). […] Then the mixtures were transferred to 37 °C and tubulin assembly was monitored (excitation wavelength: 360 nm; emission wavelength: 420 nm) at 1 min intervals for 90 min by a microplate reader.

[6] = test system: microtubule network in PC-3 cells; assay: Immunofluorescence assay of microtubule network; type: cell-based, human; conditions: 50 nM, 24 h
Method: To evaluate the effects of 4k and 5a on intracellular microtubule, immunofluorescence assay was carried out to observe the changes of microtubule network in cell.
PC-3 cells in logarithmic phase were harvested and seeded onto 12-well cell plates with round coverslip on the bottom of each well at a density of 3 × 10^4 cells per well, and were cultured for 24 h. […] The medium was removed, and cells were washed with PBS twice, fixed with 4% formaldehyde in PBS for 30 min, then the solution was removed. Cells were washed with PBS twice, permeabilized with 0.2% (v/v) Triton X-100 in PBS for 30 min, then the solution was removed. Cells were washed with PBS twice, blocking the cells in 5% bovine serum albumin (BSA) for 30 min. Then BSA was removed, and cells were incubated with the primary α-tubulin antibody (Santa Cruz, CA) containing 2% BSA (v/v, 1: 100) overnight at 4 °C.
The following steps were operated in dark environment. The antibody was removed, then cells were washed with PBST twice and were added FITC-conjugated anti-mouse secondary antibody diluted (1:100) with 2% BSA in PBS and incubated at room temperature for 4 h. The cells were then washed with PBST twice, stained with 4′,6-diamidino-2-phenylindole (DAPI) for 30 min at room temperature, and washed with PBS twice. The round coverslips at the bottom of wells were taken out, and the images were photographed by a confocal microscope.

[7] = test system: cyclin-dependent kinase 1 (CDK1); assay: Western blot assay, CDK1; type: cell-based, human; conditions: PC-3 cells, at the concentrations of 40 and 20 nM
Method: Additionally, western blot assay was employed to measure the expression level of cell cycle-related proteins cyclin-dependent kinase 1 (CDK1) and Cyclin B1.
PC-3 cells in logarithmic phase were harvested and seeded onto culture plates, and were cultured for 24 h. […] The proteins of PC-3 cells were extracted by RIPA buffer containing 1% PMSF (Beyotime Biotechnology, China). The protein concentration was measured by BCA Assay Kit (SEVEN Biotech, China). Equal amounts and concentration of protein were diluted in 5× loading buffer (Beyotime, China) and denatured by boiled for 5 min. Protein samples were separated on 12.5% SDS-PAGE gels (EpiZyme, China) and transferred to PVDF membranes (Millipore Corporation, Billerica, MA, USA). The membranes were blocked in QuickBlockTM Block Buffer (SEVEN Biotech, China) for 10 min at room temperature. Then the membranes were incubated with the primary antibodies overnight at 4 °C, including Cyclin B1 (1:2000, Proteintech, China), CDK1 (1:5000, Proteintech, China), BAX (1:5000, Proteintech, China), Bcl2 (1:1000, Proteintech, China), Caspase 9/p35/p10 (1:1000, Proteintech, China), and β-actin (1:20 000, Proteintech, China). […] The protein signals were detected by using chemiluminescent reagents kit (NCM Biotech, China) and visualised with ChemiDocImaging System (Tanon 5200, China). Protein expressions was quantified by using Fiji/ImageJ software.

[8] = test system: PC-3 cells; assay: Transwell migration assay; type: cell-based, human; conditions: 24 h, relative to untreated cells
Method: Transwell migration assay was used on PC-3 cells to further investigate the effect of 4k and 5a on cell migration.
PC-3 cells in logarithmic phase were harvested and seeded onto six-well cell plates at a density of 4 × 10^4 cells per well, and were cultured for 24 h. […] Then these cells were harvested and seeded onto the top chambers of transwell filters (Corning) at a concentration of 4 × 10^4 cells with 200 μL of FBS-free medium per well in 24-well culture plates, while the bottom chambers were added 600 μL of medium containing 10% FBS. The cells were cultured for additional 24 h, then the cells that migrated to the bottom of the top chambers were fixed with 4% paraformaldehyde and subsequently stained with crystal violet solution. Images were taken by an inverted microscope and analysed by Fiji/ImageJ software.

Structure (SMILES) | IC50 ([1]; SGC-7901, 72 h) | IC50 ([2]; MCF7, 72 h) | IC50 [3] | IC50 ([4]; 72 h) | SI-L [4] | effect on tubulin polymerisation (fluorescence intensity) ([5]; 10 μM and 20 μM) | tubulin polymerisation inhibitory potency compared with colchicine (3 μM) ([5]; 20 μM) | effect on microtubule network [6] | level of CDK1 [7] | percentage of migrated cells ([8]; PC-3, 5 nM) | percentage of migrated cells ([8]; PC-3, 10 nM) | percentage of migrated cells ([8]; PC-3, 20 nM) | IC50 ([1]; SGC-7901, 72 h drug exposure, MTT assay) | IC50 ([2]; MCF7, 72 h drug exposure, MTT assay) | IC50 ([4]; 72 h drug exposure, MTT assay, normal cells) | effect on tubulin polymerisation (fluorescence intensity) ([5]; 5 μM and 10 μM) | tubulin polymerisation inhibitory potency compared with colchicine (3 μM) ([5]; 5 μM and 10 μM)
COc1cc(C2=NCC(=O)Nc3cn(-c4ccccc4)nc32)cc(OC)c1OC [5a, 2-Phenyl-8–(3,4,5-trimethoxyphenyl)-2,6-dihydropyrazolo[4,3-e][1,4]diazepin-5(4H)-one] | 0.018 ± 0.003 µM | 1.78 ± 0.617 µM | 0.163 ± 0.038 µM | 0.204 ± 0.056 µM | 35.00 | inhibition of tubulin polymerisation | superior inhibitory potency compared to colchicine | microtubule network was destroyed | increase | 53.6% | 49.1% | 27.8% |  |  |  |  | 
COc1cc(C(=O)c2nn(-c3ccc(N)cc3)cc2N)cc(OC)c1OC [4k, (4-amino-1–(4-aminophenyl)-1H-pyrazol-3-yl)(3,4,5-trimethoxyphenyl)methanone] |  |  | 0.01 ± 0.001 µM |  | 1.713 |  |  | microtubule network was destroyed | increase | 60.4% | 25.7% | 18.7% | 0.017 ± 0.002 µM | 0.031 ± 0.005 µM | 0.025 ± 0.008 µM | inhibition of tubulin polymerisation | higher potency than colchicine
